The values that follow come from patent US8106090B2, “1-amino linked compounds” (Eli Lilly and Company, priority 2005, dated 2012).

The structures appear in SMILES notation. Where a name gives a salt, the structure may show the parent alone.

The IC50 is the concentration that gives 50% inhibition.

T1 sequence (P27487 29-766 limits assumed): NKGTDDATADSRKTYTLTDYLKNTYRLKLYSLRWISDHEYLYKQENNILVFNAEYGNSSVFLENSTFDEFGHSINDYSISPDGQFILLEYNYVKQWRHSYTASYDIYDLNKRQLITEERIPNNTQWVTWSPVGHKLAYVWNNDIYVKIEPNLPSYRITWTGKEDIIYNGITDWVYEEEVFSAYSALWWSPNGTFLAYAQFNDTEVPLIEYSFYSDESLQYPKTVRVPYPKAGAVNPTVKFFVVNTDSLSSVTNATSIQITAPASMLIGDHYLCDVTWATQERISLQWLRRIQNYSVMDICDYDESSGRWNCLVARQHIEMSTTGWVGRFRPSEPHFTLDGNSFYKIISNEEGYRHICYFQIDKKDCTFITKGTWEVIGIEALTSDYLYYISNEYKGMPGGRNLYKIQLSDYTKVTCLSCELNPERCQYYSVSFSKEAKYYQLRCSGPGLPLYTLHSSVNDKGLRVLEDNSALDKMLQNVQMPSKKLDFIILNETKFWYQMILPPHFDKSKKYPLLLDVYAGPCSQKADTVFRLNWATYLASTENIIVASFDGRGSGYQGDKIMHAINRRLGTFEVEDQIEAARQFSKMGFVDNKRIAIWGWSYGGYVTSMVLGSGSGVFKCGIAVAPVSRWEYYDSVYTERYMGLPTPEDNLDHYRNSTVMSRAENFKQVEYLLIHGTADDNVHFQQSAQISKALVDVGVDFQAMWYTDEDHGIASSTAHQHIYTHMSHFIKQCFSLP

The experiment concerns the target T1, human recombinant DPIV enzyme (Homo sapiens, UniProt P27487).
T1 construct: Secreted DPIV (lacking membrane anchor) was enriched from HEK293 cell culture supernatant; made in house; host or cells: HEK293
The experiment in a line: Human recombinant DPIV activity assay (fluorometric end point, Gly-Pro-AMC substrate). The class given is biochemical. The settings on record: enriched human recombinant DPIV, Gly-Pro-AMC 0.02 mM, 12 points concentration response curve, duplicates. How it is done:
Human Recombinant DPIV Activity Assay
The DPIV assay used was a fluorometric end point assay (excitation 355 nm; emission 460 nm) using enriched human recombinant DPIV enzyme (21.3 μU/μl), and Gly-Pro-AMC (Bachem I-1225) as substrate (0.02 mM). Secreted DPIV (lacking membrane anchor) was enriched from HEK293 cell culture supernatant by ultrafiltration, ultra-centrifugation, and size-exclusion chromatography. IC50 values of the compounds were calculated based on a 12 points concentration response curve. Each concentration was measured as duplicates. The assay was validated by plate variability and conformity, inter-plate variability, signal window, and minimum significant ration of IC50. A MSR was calculated based on a test/retest analysis and a retrospective analysis. The MSR value is 1.8.
On to `N[C@H](Cc1ccccc1)[C@@H](O)CN1CCCC(c2ccccc2)C1` (stereo partly drawn) [Example 6, (2S,3R)-3-Amino-4-phenyl-1-([3R,S]-3-phenyl-piperidin-1-yl)-butan-2-ol Dihydrochloride], for which the IC50 came to 2.73 µM.

`N[C@H](Cc1ccccc1)[C@@H](O)Cn1cccn1` [Example 13, (2S,3R)-3-Amino-4-phenyl-1-pyrazol-1-yl-butan-2-ol Hydrochloride]: the IC50 was determined as 2.99 µM.

For the compound `N[C@H](Cc1ccccc1)[C@@H](O)Cn1cnc2ccccc21` [Example 15, (2S,3R)-3-Amino-1-benzimidazol-1-yl-4-phenyl-butan-2-ol Hydrochloride], the IC50 came out at 4.33 µM.

As for `CN(C[C@H](O)[C@H](N)Cc1ccccc1)S(C)(=O)=O` [Example 21, N-[(2S,3R)-3-Amino-2-hydroxy-4-phenyl-butyl]-N-methyl-methanesulfonamide Hydrochloride], the IC50 was 9.76 µM.
